Measured values as given in US20250179061A1 (SIRONAX LTD., priority 2022, published 2025).

Each compound was assayed on HT-29 cells (assay: HT-29 necroptosis cell viability assay (TNF-α/SMAC mimetic/zVAD-FMK, CellTiter-Glo)). Settings: Homo sapiens, HT-29, HT-29 cells, necroptosis induced by TNF-α/SMAC mimetic/zVAD-FMK, CellTiter-Glo; read-out: Activity (IC50 class).
Assay type: cell-based
Protocol: Compounds 1-702 of the disclosure were tested for biological activity, following the experimental procedures described below.
• Cell line: HT-29 (ATCC® HTB-38™) • Culture medium: McCOY's 5A, Gibco, Cat No. 16600-082 • FBS, Gibco, Cat No. 10099-141 C • Trypsin: Gibco, Cat No. 25200-056 • DMSO: Sigma, Cat No. 67-68-5, 1L • Assay plate: Corning #3903 • Compound dilution plate: Corning #3357 • Inducers: TNFα, GenScript, Cat No. Z01001-50, • SmacM, Cat. No., HY-15989, MedChemExpress (MCE) • Z_VAD FMK, TargetMol, T6013 • Cell Titer-Glo® Luminescent Cell Viability Assay Kit: Promega, Cat No. G7573 • EnVision: PerkinElmer, 2105-0010
• 1. HT-29 cells were checked every day to make sure that they were healthy and growing as expected. They were subjected to sub-culturing when they were approximately 80% confluent. • 2. The culture medium, McCOY's 5A medium (Gibco, Cat No. 16600-082) with 10% fetal bovine serum or FBS (Gibco, Cat No. 10099-141C), was pre-warmed in a 37° C. water bath for at least 30 min. • 3. When the cells had reached a desired level of confluency of 80% in a T75 flask, the medium was aspirated, and the cells were washed with warm phosphate buffered saline or PBS two times. • 4. 2-3 ml fresh warm trypsin (Gibco, Cat No. 25200-056) solution was added to the washed cells. The flask with the cells was transferred to a 37° C. incubator. • 5. After 5 minutes, the side of the flask was tapped, and the flask was examined under a microscope for detachment of the cells to the flask. If necessary, the cells were kept in the incubator for an additional 5-10 minutes, with occasional tapping, until lifting was complete. • 6. The trypsin reaction was neutralized by transferring 6-9 ml cell culture medium to sterile 15 ml conical tubes, and by centrifuging the cell culture at 300×g for 7 minutes to pellet the cells (supernatant decanted). • 7. The cells were resuspended in fresh cell culture medium and the cell counting was performed using a hemocytometer. • 8. 100 μl of the resuspended cell culture medium containing ˜5,000 cells were transferred into each well of the sterile 96-well cell culture plate (Corning 3903) and cultured overnight at 37° C. with 5% CO2.
• 1. All test compounds were dissolved in DMSO (Dimethyl sulfoxide) to create a 20 mM stock. • 2. 3 μl of 20 mM stock of each compound was mixed with 27 μl DMSO, and the compound solution was further diluted at a titration ratio of 1:3 (20 μl compound solution+40 μl DMSO) till the 10 points end. • 3. All culture medium was removed from assay plates filled with HT-29 cell cultures. The cells were then washed with 1 PBS, and resuspsended in fresh, FBS-free McCOY's 5A medium containing a cocktail of TNF-α (10 ng/ml), a SMAC mimetic compound (6 μM) and Z-VAD-fluoromethylketone or zVAD-FMK (10 μM) to stimulate the HT-29 cells to increase RIP1 kinase levels and necroptosis. • 4. 0.5 μL of the diluted compound solution was added to the corresponding 96-well assay plates. • 5. The assay plates were incubated for 20 hours at 37° C. with 5% CO2.
• 1. The CellTiter-Glo® Luminescent Cell Viability Assay was employed to detect the ATP levels of viable HT-29 cells. • 2. The CellTiter-Glo® buffer and the lyophilized substrate were equilibrated to room temperature prior to use. • 3. The CellTiter-Glo® substrate was resuspended with CellTiter-Glo® buffer, then mixed by gently vortexing to obtain a homogeneous solution. • 4. 20 μl of the enzyme/substrate mixture was transferred by multi-channel pipetting into 96-well assay plates. • 5. The assay plates were placed on an orbital shaker and the contents were shaken for 3 minutes to induce cell lysis. • 6. The assay plates were incubated at room temperature for 10 minutes to stabilize the luminescent signal. • 7. The luminescence signals were read and recorded with EnVision. • 8. The geometric mean IC50 values were calculated from 10 points response dose with duplicates. […]

SMILES | IC50 [nM]
Cc1ncsc1OC1CCC(n2nc3n(c2=O)[C@H](c2ccccc2)CC3)CC1 (single isomer, unassigned) [Example 636] | 100 to 1000
Cc1nc(C(N)=O)sc1Oc1ncc(-n2nc3n(c2=O)[C@H](c2ccccc2)CC3)cc1F (single isomer, unassigned) [Example 638] | < 100
Cc1nc(C(N)=O)sc1Oc1ncc(-n2nc3n(c2=O)[C@@H](c2ccccc2)CC3)cc1F (single isomer, unassigned) [Example 639] | 100 to 1000

Same assay, conditions: Homo sapiens, HT-29, HT-29 necroptosis cell viability assay; class symbols for IC50; read-out: Activity

SMILES | IC50 [nM]
Cc1nc(C(C)O)sc1Oc1ccc(-n2nc3n(c2=O)[C@H](c2ccccc2)CC3)cc1F (single isomer, unassigned) [Example 149] | < 100
Cc1nc([C@@H](C)O)sc1Oc1ccc(-n2nc3n(c2=O)[C@H](c2ccccc2)CC3)cc1F (single isomer, unassigned) [Example 150] | < 100
Cc1nc([C@H](C)O)sc1Oc1ccc(-n2nc3n(c2=O)[C@H](c2ccccc2)CC3)cc1F (single isomer, unassigned) [Example 151] | < 100
Cc1nc(C(=O)N2CCOCC2)sc1Oc1ccc(-n2nc3n(c2=O)[C@H](c2ccccc2)CC3)cc1F (single isomer, unassigned) [Example 601] | < 100
Cc1nc(C(=O)NC2CCOCC2)sc1Oc1ccc(-n2nc3n(c2=O)[C@H](c2ccccc2)CC3)cc1F (single isomer, unassigned) [Example 602] | < 100

Same assay, conditions: Homo sapiens, HT-29, HT-29 necroptosis cell viability, IC50 class symbols; read-out: Activity

SMILES | IC50 [nM]
Cc1nc(C(C)O)sc1Oc1ccc(-n2ncn(Cc3c(F)cccc3F)c2=O)cc1 (racemic) [Example 459, 4-(2,6-difluorobenzyl)-2-(4-((2-(1-hydroxyethyl)-4-methylthiazol-5-yl)oxy)phenyl)-2,4-dihydro-3H-1,2,4-triazol-3-one] | < 100
C[C@H]1[C@@H](O)CN1c1cc(Oc2ccc(-n3nc4n(c3=O)[C@H](c3ccccc3)CC4)cc2F)c(F)cn1 (single isomer, unassigned) [Example 258] | < 100
Cc1nc([C@H](C)O)sc1Oc1ccc(-n2ncn(Cc3c(F)cccc3F)c2=O)cc1F (single isomer, unassigned) [Example 460] | < 100
Cc1nc([C@@H](C)O)sc1Oc1ccc(-n2ncn(Cc3c(F)cccc3F)c2=O)cc1F (single isomer, unassigned) [Example 461] | < 100

Same assay, conditions: Homo sapiens; HT-29 cells stimulated with TNF-α (10 ng/ml), SMAC mimetic (6 μM) and zVAD-FMK (10 μM); 20 hours; CellTiter-Glo ATP luminescence; geometric mean IC50 from 10 points; read-out: Activity

SMILES | IC50 [nM]
Cc1ncsc1Oc1ccc(-n2nc3n(c2=O)[C@H](c2ccccc2)CC3)cc1F (single isomer, unassigned) [Example 3] | < 100
Cc1ncsc1Oc1ccc(-n2nc3n(c2=O)[C@@H](c2ccccc2)CC3)cc1F (single isomer, unassigned) [Example 4] | < 100
Cc1nc(C(N)=O)sc1Oc1ccc(-n2nc3n(c2=O)[C@H](c2ccccc2)CC3)cc1F (single isomer, unassigned) [Example 14] | < 100
Cc1nc(C(N)=O)sc1Oc1ccc(-n2nc3n(c2=O)[C@@H](c2ccccc2)CC3)cc1F (single isomer, unassigned) [Example 15] | 100 to 1000
Cc1nc(C(N)=O)sc1Oc1ccc(-n2nc3n(c2=O)[C@H](c2ccccc2)CC3)cc1Cl (single isomer, unassigned) [Example 16] | < 100
Cc1nc(C(N)=O)sc1Oc1ccc(-n2nc3n(c2=O)[C@H](c2ccccc2)CC3)cc1 (single isomer, unassigned) [Example 17] | < 100
Cc1nc(C(=O)NC2CCOC2)sc1Oc1ccc(-n2nc3n(c2=O)[C@H](c2ccccc2)CC3)cc1F (single isomer, unassigned) [Example 18] | < 100
Cn1nc(C(N)=O)cc1Oc1ccc(-n2nc3n(c2=O)[C@H](c2ccccc2)CC3)cc1F (single isomer, unassigned) [Example 30] | < 100
COC(=O)c1nc(C)c(Oc2ccc(-n3nc4n(c3=O)[C@@H](c3ccccc3)CC4)cc2F)s1 (single isomer, unassigned) [Example 35] | 1000 to 10000
COC(=O)c1nc(C)c(Oc2ccc(-n3nc4n(c3=O)[C@H](c3ccccc3)CC4)cc2F)s1 (single isomer, unassigned) [Example 36] | < 100
